The values that follow come from ChEMBL document CHEMBL4480443, “Synthesis and biological evaluation of solubilized sulfonamide analogues of the phosphatidylinositol 3-kinase inhibitor ZSTK474” (Bioorg Med Chem, 2019).

The conditions of series [1]: 0.25 h.
Series [2] is described as follows: physchem. Conditions: aqueous medium with DMSO.
Series [3] is described as follows: physchem. The settings on record: buffer.

As a reminder, the solubility is the dissolved amount per volume that the medium holds. Read a low solubility as little dissolved substance.

As for `COc1cccc2c1nc(C(F)F)n2-c1nc(N2CCOCC2)nc(N2CCN(S(C)(=O)=O)CC2)n1`, in series [1], the solubility result was “Insoluble”.

Take `COc1cccc2c1nc(C(F)F)n2-c1nc(N2CCOCC2)nc(N2CCN(S(=O)(=O)CCN(C)C)CC2)n1.Cl`: the solubility at 0.25 h in “physchem [2]” came out at 24 µg/mL.

With `COc1cccc2c1nc(C(F)F)n2-c1nc(N2CCOCC2)nc(N2CCN(S(=O)(=O)CCN(C)C)CC2)n1.CS(=O)(=O)O`, the solubility in the series “physchem [3]” is above 59 µg/mL.
